Results from patent US12630498B2 (Genzyme Corporation, priority 2019, dated 2026).

Key:
[1] = molecular target: T1, CFTR-mediated transepithelial chloride transport in primary human bronchial epithelial cells from a ΔF508 homozygous CF donor (Homo sapiens, UniProt P13569, DEL508-508); experiment: TECC24 recording of CFTR-mediated transepithelial chloride transport in CF-HBE cells (AUC fold over DMSO); type: cell-based; conditions: test agent 10 μM, 48 hours incubation, AUC of forskolin-stimulated IEQ relative to DMSO
T1 construct: Primary human bronchial epithelial cells from a ΔF508 homozygous CF donor; host or cells: primary CF-HBE cells, ΔF508 homozygous donor
T1 sequence (P13569 with tags, fused parts or gaps DEL508-508): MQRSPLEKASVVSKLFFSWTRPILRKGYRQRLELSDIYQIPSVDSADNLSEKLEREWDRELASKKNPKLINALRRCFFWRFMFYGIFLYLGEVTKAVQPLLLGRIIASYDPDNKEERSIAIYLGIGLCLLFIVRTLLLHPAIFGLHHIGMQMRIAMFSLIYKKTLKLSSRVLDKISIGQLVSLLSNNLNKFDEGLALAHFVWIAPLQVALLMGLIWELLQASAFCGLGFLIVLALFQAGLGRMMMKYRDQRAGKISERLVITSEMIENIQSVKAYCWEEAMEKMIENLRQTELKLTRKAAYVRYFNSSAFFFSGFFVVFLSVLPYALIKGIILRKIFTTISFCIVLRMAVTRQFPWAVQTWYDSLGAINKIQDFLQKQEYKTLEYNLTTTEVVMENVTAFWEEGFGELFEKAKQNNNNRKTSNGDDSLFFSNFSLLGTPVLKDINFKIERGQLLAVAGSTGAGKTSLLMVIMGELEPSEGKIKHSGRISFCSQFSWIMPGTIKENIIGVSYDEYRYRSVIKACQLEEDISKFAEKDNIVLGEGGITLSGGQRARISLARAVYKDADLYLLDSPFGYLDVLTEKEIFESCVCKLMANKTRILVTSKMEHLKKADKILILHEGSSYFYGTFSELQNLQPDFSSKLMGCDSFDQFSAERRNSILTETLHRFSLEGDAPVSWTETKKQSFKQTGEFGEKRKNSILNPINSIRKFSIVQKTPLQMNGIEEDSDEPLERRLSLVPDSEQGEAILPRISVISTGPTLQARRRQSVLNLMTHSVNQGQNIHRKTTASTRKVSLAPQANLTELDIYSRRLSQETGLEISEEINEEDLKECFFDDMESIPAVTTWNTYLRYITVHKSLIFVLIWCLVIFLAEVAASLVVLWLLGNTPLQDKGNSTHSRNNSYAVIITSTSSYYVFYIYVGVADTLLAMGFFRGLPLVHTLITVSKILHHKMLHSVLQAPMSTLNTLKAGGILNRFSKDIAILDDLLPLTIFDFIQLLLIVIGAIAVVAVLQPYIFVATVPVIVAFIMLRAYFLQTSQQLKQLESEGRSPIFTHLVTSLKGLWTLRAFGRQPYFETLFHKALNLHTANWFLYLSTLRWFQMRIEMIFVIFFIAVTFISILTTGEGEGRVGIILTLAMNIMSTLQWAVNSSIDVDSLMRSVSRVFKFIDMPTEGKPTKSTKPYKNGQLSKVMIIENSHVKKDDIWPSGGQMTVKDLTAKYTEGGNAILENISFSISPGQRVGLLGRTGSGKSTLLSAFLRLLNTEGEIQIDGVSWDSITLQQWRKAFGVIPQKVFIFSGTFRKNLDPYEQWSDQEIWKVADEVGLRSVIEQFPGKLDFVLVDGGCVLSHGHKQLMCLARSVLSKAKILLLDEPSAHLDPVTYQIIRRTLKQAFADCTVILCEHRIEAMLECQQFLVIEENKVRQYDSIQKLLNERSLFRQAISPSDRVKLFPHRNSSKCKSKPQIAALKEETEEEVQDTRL
Method in brief: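 Equivalent Cl⁻ current was derived from transepithelial voltage and resistance, and its AUC from forskolin (10 μM) to CFTRinh-172 (20 μM) was divided by the DMSO AUC. Benzamil 10 μM blocked ENaC. Cells were ΔF508-homozygous primary bronchial epithelia pretreated 48 h at 36.5 °C in IL-13 medium.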

[2] = molecular target: T2, human Cystic Fibrosis Transmembrane Conductance Regulator (CFTR) harboring the ΔF508 mutation (Homo sapiens, UniProt P13569, DEL508-508); experiment: H441 cell ΔF508-CFTR-HRP cell surface assay (Emax and EC50); type: cell-based; conditions: for Emax: NCI-H441, NA = Not active
T2 construct: expressed in transfected cells; host or cells: H441 carcinoma line (G418-selected)
T2 sequence (P13569 with tags, fused parts or gaps DEL508-508): as above
Method in brief: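 H441 and 41o- bronchial epithelial cells expressing ΔF508-CFTR with an extracellular-loop-4 HRP tag were treated with a 15-point compound series (24.5–0.001 μM) for two nights, H441 at 27° C, 41o- at 37° C with 0.0005 mg/ml doxycycline. Surface HRP luminescence read; % of maximum VX809 signal and EC50 derived.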

Row | Compound | TECC24 AUC fold over DMSO @10 μM [1] | EC50 [2] [nM] | Emax [2] [%]
1 | CCC(C)(C)[C@H](NC(=O)c1ccc2ccc(Cl)cc2c1OCc1ccc(OC(F)(F)F)cc1)C(=O)O [Example 277, (S)-2-(7-chloro-1-((4-(trifluoromethoxy)benzyl)oxy)-2-naphthamido)-3,3-dimethylpentanoic Acid] | A (“A” refers to AUC @10 uM >6) | 100 | 186
2 | Cc1cc2c(OCc3ccc(C(F)(F)F)cc3)c(C(=O)N[C@H](C(=O)O)C(C)(C)C)ccc2cc1F [Example 278, (S)-2-(6-fluoro-7-methyl-1-((4-(trifluoromethyl)benzyl)oxy)-2-naphthamido)-3,3-dimethylbutanoic Acid] | A (“A” refers to AUC @10 uM >6) | 200 | 248
3 | Cc1ccc2ccc(C(=O)N[C@H](C(=O)O)C(C)(C)C)c(OCc3ccc(C(F)(F)F)cc3)c2c1 [Example 279, (2S)-3,3-dimethyl-2-[[7-methyl-1-[[4-(trifluoromethyl)phenyl]methoxy]naphthalene-2-carbonyl]amino]butanoic Acid] | A (“A” refers to AUC @10 uM >6) | 100 | 348
4 | Cc1ccc2ccc(C(=O)N[C@H](C(=O)O)C(C)(C)CF)c(OCC3CCCCC3)c2c1 [Example 282, (S)-2-(1-(cyclohexylmethoxy)-7-methyl-2-naphthamido)-4-fluoro-3,3-dimethylbutanoic Acid] | A (“A” refers to AUC @10 uM >6) | 700 | 285
5 | CCC(C)(C)[C@H](NC(=O)c1ccc2ccc(Cl)cc2c1OCc1ccc(C(F)(F)F)cc1)C(=O)O [Example 283, (S)-2-(7-chloro-1-((4-(trifluoromethyl)benzyl)oxy)-2-naphthamido)-3,3-dimethylpentanoic Acid] | A (“A” refers to AUC @10 uM >6) | 200 | 313
6 | Cc1ccc2ccc(C(=O)N[C@@H](C(=O)O)C(C)(C)C)c(OCc3ccc(C(F)(F)F)cc3)c2c1 [Example 284, (R)-3,3-dimethyl-2-(7-methyl-1-((4-(trifluoromethyl)benzyl)oxy)-2-naphthamido) butanoic Acid] | C (“C” refers to AUC @10 uM <4) | 500 | 173
7 | CC(C)(C)[C@@H](NC(=O)c1ccc2ccc(Cl)cc2c1OCc1ccc(OC(F)(F)F)cc1)C(=O)O [Example 285, (R)-2-(7-chloro-1-((4-(trifluoromethoxy)benzyl)oxy)-2-naphthamido)-3,3-dimethylbutanoic Acid] | C (“C” refers to AUC @10 uM <4) | 800 | 99.1
8 | CC(C)(C)[C@H](NC(=O)c1ccc2ccc(Cl)cc2c1OCc1ccc(C(F)(F)F)cc1)C(=O)O [Example 286, (S)-2-(7-chloro-1-((4-(trifluoromethyl)benzyl)oxy)-2-naphthamido)-3,3-dimethylbutanoic Acid] | A (“A” refers to AUC @10 uM >6) | 100 | 353
9 | CC(C)(C)[C@@H](NC(=O)c1ccc2ccc(C(F)(F)F)cc2c1OCc1ccc(OC(F)(F)F)cc1)C(=O)O [Example 287, (R)-3,3-dimethyl-2-(1-((4-(trifluoromethoxy)benzyl)oxy)-7-(trifluoromethyl)-2-naphthamido)butanoic Acid] | C (“C” refers to AUC @10 uM <4) | 300 | 57.1
10 | CCCC(C)(CC)[C@H](NC(=O)c1ccc2ccc(F)cc2c1OCc1ccc(C(F)(F)F)cc1)C(=O)O (stereo partly drawn) [Example 291, (2S)-3-ethyl-2-(7-fluoro-1-((4-(trifluoromethyl)benzyl)oxy)-2-naphthamido)-3-methylhexanoic Acid] | A (“A” refers to AUC @10 uM >6) | 400 | 260
11 | CCC(C)(C)[C@H](NC(=O)c1ccc2ccc(C(F)(F)F)cc2c1OCc1ccc(C(F)(F)F)cc1)C(=O)O [Example 295, (S)-3,3-dimethyl-2-(7-(trifluoromethyl)-1-((4-(trifluoromethyl)benzyl)oxy)-2-naphthamido)pentanoic Acid] | A (“A” refers to AUC @10 uM >6) | 100 | 229
12 | CCC(C)(C)[C@H](NC(=O)c1ccc2ccc(C(F)(F)F)cc2c1OCc1ccc(OC(F)(F)F)cc1)C(=O)O [Example 296, (S)-3,3-dimethyl-2-(1-((4-(trifluoromethoxy)benzyl)oxy)-7-(trifluoromethyl)-2-naphthamido)pentanoic Acid] | A (“A” refers to AUC @10 uM >6) | 200 | 186

More lines, in order of falling EC50 [2], values ahead:

Row | TECC24 AUC fold over DMSO @10 μM [1] | EC50 [2] [nM] | Emax [2] [%] | Compound
13 | A (“A” refers to AUC @10 uM >6) | 1000 | 281 | CCC(C)(C)[C@H](NC(=O)c1ccc2ccc(C)cc2c1OCCCC(C)C)C(=O)O [Example 294, 3,3-Dimethyl-2-{[7-methyl-1-(4-methyl-pentyloxy)-naphthalene-2-carbonyl]-amino}-pentanoic Acid]
14 | A (“A” refers to AUC @10 uM >6) | 700 | 246 | CCC(C)(C)[C@H](NC(=O)c1ccc2ccc(C)cc2c1OCC1CCCCC1)C(=O)O [Example 281, (S)-2-(1-(cyclohexylmethoxy)-7-methyl-2-naphthamido)-3,3-dimethylpentanoic Acid]
15 | A (“A” refers to AUC @10 uM >6) | 500 | 137 | CC1([C@H](NC(=O)c2ccc3ccc(C(F)(F)F)cc3c2OCc2ccc(OC(F)(F)F)cc2)C(=O)O)CC1 [Example 297, (S)-2-(1-methylcyclopropyl)-2-(1-((4-(trifluoromethoxy)benzyl)oxy)-7-(trifluoromethyl)-2-naphthamido)acetic Acid]
16 | A (“A” refers to AUC @10 uM >6) | 300 | 309 | CCC(C)(C)C(NC(=O)c1ccc2ccc(C)cc2c1OCc1ccc(OC(F)(F)F)cc1)C(=O)O (stereo not drawn) [Example 276, 3,3-dimethyl-2-(7-methyl-1-((4-(trifluoromethoxy)benzyl)oxy)-2-naphthamido)pentanoic Acid]
17 | A (“A” refers to AUC @10 uM >6) | 300 | 309 | CCC(C)(C)[C@H](NC(=O)c1ccc2ccc(C)cc2c1OCc1ccc(OC(F)(F)F)cc1)C(=O)O [Example 280, (S)-3,3-dimethyl-2-(7-methyl-1-((4-(trifluoromethoxy)benzyl)oxy)-2-naphthamido)pentanoic Acid]
18 | A (“A” refers to AUC @10 uM >6) | 200 | 322 | CCC(C)(C)C(NC(=O)c1ccc2ccc(C)cc2c1OCc1ccc(C(F)(F)F)cc1)C(=O)O (stereo not drawn) [Example 275, 3,3-Dimethyl-2-{[7-methyl-1-(4-trifluoromethyl-benzyloxy)-naphthalene-2-carbonyl]-amino}-pentanoic Acid]
19 | A (“A” refers to AUC @10 uM >6) | 100 | 404 | CCC(C)(C)[C@H](NC(=O)c1ccc2ccc(C)cc2c1OCc1ccc(C(F)(F)F)cc1)C(=O)O [Example 288, (S)-3,3-dimethyl-2-(7-methyl-1-((4-(trifluoromethyl)benzyl)oxy)-2-naphthamido)pentanoic Acid]
